# Data published in PubChem BioAssay (NCI).
# Where “and” joins values, the source holds several entries; their conditions need not be identical. Equal values may be shown once.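 Cells were grown in 96-well plates and exposed to each compound for 48 hours at five concentrations; endpoints were interpolated linearly between bracketing concentrations, or set to the highest concentration if not reached. GI50 = concentration required for 50% inhibition of growth. At the TGI there is no net growth.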
# Legend:
# Assay in all cases: NCI tumour cell line growth inhibition, 48 h
# CAKI-1 renal = test system: CAKI-1 renal
# SK-MEL-28 melanoma = test system: SK-MEL-28 melanoma
# MOLT-4 leukemia = test system: MOLT-4 leukemia
# RXF 393 renal = test system: RXF 393 renal
# UACC-257 melanoma = test system: UACC-257 melanoma
# SK-MEL-5 melanoma = test system: SK-MEL-5 melanoma
# NCI-H460 lung = test system: NCI-H460 lung
# RPMI-8226 leukemia = test system: RPMI-8226 leukemia
# TK-10 renal = test system: TK-10 renal
# M14 melanoma = test system: M14 melanoma
Compound,GI50 (CAKI-1 renal),TGI (CAKI-1 renal),GI50 (SK-MEL-28 melanoma),TGI (SK-MEL-28 melanoma),GI50 (MOLT-4 leukemia),TGI (MOLT-4 leukemia),GI50 (RXF 393 renal),TGI (RXF 393 renal),GI50 (UACC-257 melanoma),TGI (UACC-257 melanoma),GI50 (SK-MEL-5 melanoma),TGI (SK-MEL-5 melanoma),GI50 (NCI-H460 lung),TGI (NCI-H460 lung),GI50 (RPMI-8226 leukemia),TGI (RPMI-8226 leukemia),GI50 (TK-10 renal),TGI (TK-10 renal),GI50 (M14 melanoma),TGI (M14 melanoma)
CC(=O)O[C@H]1[C@@H]2OC(=O)C(CSc3ccccc3)[C@@H]2C[C@H]2O[C@]2(C)CC/C=C(\C)CCC[C@@H]1C (stereo not given in full),1.69 µM,6.34 µM,1.91 µM,3.93 µM,2.52 µM,> 23.8 µM,1.88 µM,3.79 µM,5.07 µM,19.2 µM,2.57 µM,8.65 µM,4.4 µM,19.3 µM,0.192 µM,10.4 µM,1.65 µM,3.74 µM,2.13 µM,5.37 µM
CC([C@H]1CCC2C3CCC4C[C@@H](N)CC[C@]4(C)C3CC[C@@]21C)N(C)C (stereo not given in full),5.67 µM,18.1 µM,1.91 µM,3.66 µM,5.02 µM,17.2 µM,4.55 µM,14.9 µM,2.4 µM,5.42 µM,1.95 µM,5.23 µM,2.4 µM,6.04 µM,3.04 µM,11.7 µM,12 µM,28.3 µM,1.79 µM,3.54 µM
C=C(CO)[C@@H]1CC[C@]2(COC3CCCCO3)CC[C@]3(C)[C@H](CC[C@@H]4[C@@]5(C)C=C(C=O)C(=O)C(C)(C)[C@@H]5CC[C@]43C)[C@@H]12 (stereo not given in full),0.245 µM,0.7 µM,0.254 µM,0.688 µM,0.307 µM,1.21 µM,0.172 µM,0.334 µM,0.367 µM,1.61 µM,0.38 µM,1.46 µM,0.5 µM,1.75 µM,0.244 µM,0.777 µM,0.257 µM,0.688 µM,0.247 µM,0.672 µM
CN(CC(=O)Nc1nc2ccccc2[nH]1)S(=O)(=O)c1ccc(Cl)cc1,> 100 µM,> 100 µM,> 100 µM,> 100 µM,> 100 µM,> 100 µM,13.4 µM,55.6 µM,> 100 µM,> 100 µM,> 100 µM,> 100 µM,> 100 µM,> 100 µM,> 100 µM,> 100 µM,> 100 µM,> 100 µM,> 100 µM,> 100 µM
Cc1ccc(C(=O)/C(=C\c2ccc([N+](=O)[O-])cc2)S(=O)Cc2ccc(Cl)cc2)cc1 (stereo not given),1.81 µM,4.04 µM,1.76 µM,3.4 µM,1.2 µM,6.14 µM,1.65 µM,3.1 µM,1.89 µM,3.89 µM,1.69 µM,3.23 µM,1.84 µM,3.9 µM,1.29 µM,4.62 µM,1.86 µM,3.89 µM,1.65 µM,3.19 µM
COc1cc(C2=N/C(=C/c3cccs3)C(=O)O2)cc(OC)c1OC,,> 100 µM,,> 100 µM,,> 100 µM,,> 100 µM,,> 100 µM,,> 100 µM,,> 100 µM,,> 100 µM,,> 100 µM,,> 100 µM
COC(=O)C12OCC34C(CC5C(C)C6=CC(=O)OC6=CC5(C)C3C(O)C1O)OC(=O)C(O)C24 (stereo not given),,30 µM,0.0899 µM,0.933 µM and 2.29 µM,0.0314 µM,0.375 µM and 1.27 µM,0.403 µM,4.49 µM,0.339 µM,8.5 µM,0.373 µM,0.255 µM and 2.31 µM,0.0616 µM,0.716 µM and 1.18 µM,0.0333 µM,0.116 µM and 0.25 µM,0.534 µM,58.2 µM,0.177 µM and 0.767 µM,0.504 µM and 2.22 µM
COc1ccc2c(c1)C(=O)/C(=C/c1ccc([N+](=O)[O-])o1)O2,0.432 µM,1.49 µM,1.69 µM,3.22 µM,1.67 µM,3.97 µM,1.39 µM,3.05 µM,1.61 µM,3.45 µM,1.58 µM,3.02 µM,1.75 µM,3.83 µM,2.01 µM,6.2 µM,1.05 µM,2.59 µM,1.64 µM,3.32 µM
O=C(CCn1[nH]c(=O)c(Cl)c(Cl)c1=O)NNC(=O)C[n+]1ccccc1,,> 100 µM,,> 100 µM,,> 100 µM,,> 100 µM,,,,> 100 µM,,> 100 µM,,> 100 µM,,> 100 µM,,> 100 µM
CC1=C(C(=O)Nc2cc(Cl)c3[nH]ncc3c2)C(c2ccc(C(F)(F)F)cc2)CC(=O)N1 (stereo not given),> 25 µM,> 25 µM,> 25 µM,> 25 µM,11.8 µM,> 25 µM,2.37 µM,> 25 µM,> 25 µM,> 25 µM,11.4 µM,> 25 µM,> 25 µM,> 25 µM,24.9 µM,> 25 µM,> 17.6 µM,> 25 µM,> 25 µM,> 25 µM
CCOC(=O)C#Cc1c(C(=O)OCC)nnn1Cc1ccc([N+](=O)[O-])cc1,1.76 µM,3.3 µM,3.03 µM,10.2 µM,2.16 µM,13.3 µM,1.89 µM,3.52 µM,2.71 µM,7.08 µM,8.86 µM,21 µM,11.1 µM,28 µM,2.8 µM,7.37 µM,1.87 µM,3.33 µM,2.97 µM,9.13 µM
CSC(=S)OC1CC(n2cnc3c(NC(=O)c4ccccc4)ncnc32)OC1CO[Si](C)(C)C(C)(C)C (stereo not given),,> 46.4 µM,,> 46.4 µM,,14.8 µM,,> 65.8 µM,,> 56.2 µM,,18.3 µM,,> 56.2 µM,,43 µM,,> 56.2 µM,,> 56.2 µM
CCN(CC)C(=S)SCN1C(=O)c2ccccc2S1(=O)=O,> 70.5 µM,> 100 µM,31 µM,> 85.1 µM,23.9 µM,> 100 µM,> 51.3 µM,> 80.1 µM,56.3 µM,> 100 µM,6.67 µM,> 100 µM,0.928 µM,> 100 µM,< 0.01 µM,,> 52.4 µM,> 100 µM,20.9 µM,> 82.5 µM
O=C1OC(=O)C2CCCC3CCCC1C32 (stereo not given),,> 100 µM,,> 100 µM,,> 100 µM,,> 100 µM,,> 100 µM,,> 100 µM,,> 100 µM,,> 100 µM,,> 100 µM,,> 100 µM
COc1cc2nccc(Oc3ccc(NC(=O)Nc4cc(C)on4)c(Cl)c3)c2cc1OC,2.58 µM and 2.25 µM,7.67 µM and > 10 µM,3.76 µM and 4.31 µM,19.3 µM and > 10 µM,2.12 µM and 1.86 µM,44.1 µM and > 10 µM,1.96 µM and 1.79 µM,6.2 µM and 8.18 µM,3.73 µM and 5.54 µM,33.9 µM and > 10 µM,2.04 µM and 2.81 µM,5.69 µM and > 10 µM,3.41 µM and 4.31 µM,> 70.4 µM,9.83 µM and 4.33 µM,> 55.7 µM,3.42 µM and 3.9 µM,13.2 µM and > 10 µM,2.55 µM and 3.05 µM,7.83 µM and > 10 µM
Cc1cc2c(C(N)=O)c(N)n(-c3c(C)ccc(O)c3C)c2nc1C,0.4 µM,10.3 µM,4.73 µM,> 100 µM,2.86 µM,> 100 µM,0.12 µM,0.855 µM,3.13 µM,51.6 µM,4.89 µM,26.3 µM,4.77 µM,31.2 µM,3.48 µM,> 100 µM,4.11 µM,23.9 µM,0.834 µM,5.83 µM
C=C1C(=O)O[C@H]2[C@H]1CC/C(COC(=O)C(C)c1ccc(CC(C)C)cc1)=C\CC[C@@]1(C)O[C@@H]21 (stereo not given in full),1.67 µM,3.04 µM,1.63 µM,3 µM,0.42 µM,2.02 µM,1.38 µM,2.75 µM,1.66 µM,3.32 µM,1.6 µM,2.96 µM,1.56 µM,3.16 µM,0.278 µM,1.19 µM,1.74 µM,3.19 µM,0.688 µM,2.13 µM
O=C1C2CCN(CC2)C1(CO)CO,,40 µM,,44.5 µM,,23.6 µM,,52 µM,,37.7 µM,,> 73.3 µM,,> 100 µM,,43.4 µM,,32.2 µM,,38.8 µM
O=C(N/N=C/c1ccc(O)cc1O)c1cccc(Nc2ccnc(C(F)(F)F)c2)c1,1.99 µM,22.5 µM,1.83 µM,16.6 µM,0.491 µM,4.56 µM,2.48 µM,17.4 µM,3.06 µM,12.3 µM,0.626 µM,11.1 µM,3.06 µM,11.3 µM,3.55 µM,14.9 µM,2.98 µM,37.3 µM,0.925 µM,8.5 µM
N#Cc1c(N)nc(N2CCOCC2)c(C#N)c1-c1ccccn1,> 100 µM,> 100 µM,> 100 µM,> 100 µM,> 100 µM,> 100 µM,> 100 µM,> 100 µM,> 100 µM,> 100 µM,> 100 µM,> 100 µM,> 100 µM,> 100 µM,> 50.3 µM,> 100 µM,> 100 µM,> 100 µM,> 100 µM,> 100 µM
NS(=O)(=O)c1ccc(N(/C=C/C(=O)C(F)(F)F)Cc2ccc(Cl)cc2)cc1,24.4 µM,72.7 µM,29.3 µM,> 100 µM,40.1 µM,> 100 µM,16 µM,47 µM,24.1 µM,52.8 µM,19.2 µM,38 µM,67.9 µM,> 100 µM,26.2 µM,89.1 µM,23.5 µM,55.8 µM,21 µM,43.4 µM
[N-]=[N+]=NCCCn1c2c(c3ccc([N+](=O)[O-])cc3c1=O)C(=O)c1cc(F)ccc1-2,0.288 µM,4.68 µM,11.9 µM,> 100 µM,0.245 µM,2.7 µM,4.32 µM,54.6 µM,10.3 µM,> 100 µM,0.803 µM,3.16 µM,0.132 µM,2.34 µM,0.237 µM,1.28 µM,16.7 µM,> 100 µM,1.13 µM,11.1 µM
COc1ccc2c3c(c(C(=O)c4ccccc4)oc13)CCC2,,> 100 µM,,> 100 µM,,> 100 µM,,31.3 µM,,> 100 µM,,> 100 µM,,> 100 µM,,> 100 µM,,> 100 µM,,> 100 µM
Fc1cccc(-n2ccc(-c3ccccc3)nc2=S)c1,4.11 µM,14.3 µM,71.9 µM,> 100 µM,54 µM,> 100 µM,15.8 µM,30 µM,46.7 µM,> 100 µM,23.1 µM,> 73.1 µM,> 100 µM,> 100 µM,47.1 µM,> 100 µM,18.2 µM,36 µM,73 µM,> 100 µM
CC1(C)NCCC[C@]2(C)[C@H]3CC[C@@H]4[C@H]5[C@H](C(=O)/C=C/c6ccccn6)CC[C@]5(CO)CC[C@@]4(C)[C@]3(C)CC[C@@H]12,2.14 µM,6.85 µM,3.75 µM,15.7 µM,2.35 µM,7.18 µM,2.51 µM,8.08 µM,3.99 µM,19 µM,2 µM,4.07 µM,1.78 µM,3.49 µM,2.16 µM,5.58 µM,4.8 µM,24.8 µM,1.81 µM,3.56 µM
NS(=O)(=O)CC1CC[CH-]CC1.[Cl-].[Cl-].[Cl-].[Cl-].[Cl-].[Sb+5].c1ccncc1,> 100 µM,> 100 µM,> 100 µM,> 100 µM,,,> 100 µM,> 100 µM,> 100 µM,> 100 µM,> 100 µM,> 100 µM,> 100 µM,> 100 µM,> 100 µM,> 100 µM,> 100 µM,> 100 µM,> 100 µM,> 100 µM
